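Cells were grown in 96-well plates and exposed to each compound for 48 hours at five concentrations; endpoints were interpolated linearly between bracketing concentrations, or set to the highest concentration if not reached. TGI is the concentration that stops growth completely.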 Where a SMILES comes first, the peptide text is derived from it. The star is where a group is joined. Boc = CC(C)(C)OC(=O)*
How the values were obtained:
Experiment in all cases: inhibition of tumour cell growth, NCI panel, 48 h
[1] = tested on: MCF7 breast
[2] = tested on: TK-10 renal
[3] = tested on: OVCAR-5 ovarian
[4] = tested on: M14 melanoma
[5] = tested on: SF-539 CNS
[6] = tested on: SW-620 colon
[7] = tested on: SK-OV-3 ovarian
[8] = tested on: UACC-62 melanoma
[9] = tested on: OVCAR-4 ovarian
[10] = tested on: MOLT-4 leukemia
[11] = tested on: MDA-MB-435
[12] = tested on: UO-31 renal
[13] = tested on: SR leukemia

| Compound | TGI [1] | TGI [2] | TGI [3] | TGI [4] | TGI [5] | TGI [6] | TGI [7] | TGI [8] | TGI [9] | TGI [10] | TGI [11] | TGI [12] | TGI [13] |
| --- | --- | --- | --- | --- | --- | --- | --- | --- | --- | --- | --- | --- | --- |
| CCCCCC(C)C[C@H]1CO[C@H](c2ccc[nH]2)N[C@H]1C(=O)OC (stereo not given in full) | > 100 µM | > 100 µM | > 100 µM | > 100 µM | > 100 µM | > 100 µM | > 100 µM | > 100 µM | > 100 µM | > 100 µM | > 100 µM | – | – |
| COc1ccc(-c2cc(-c3ccc(Nc4ccnc5cc(Cl)ccc45)cc3)nc(N)c2C#N)c2ccccc12 | > 100 µM | > 100 µM | > 100 µM | > 100 µM | > 100 µM | > 100 µM | – | > 100 µM | > 100 µM | > 100 µM | > 100 µM | > 100 µM | > 100 µM |
| Cc1ccc(-n2c(C)nc3c2C(=O)c2ccccc2C3=O)cc1 | – | > 100 µM | – | > 100 µM | 86.1 µM | > 100 µM | > 100 µM | 56.6 µM | > 100 µM | > 100 µM | – | > 100 µM | > 100 µM |
| CN(C)Cc1cc(C(=O)/C=C/c2ccc(/C=C/C(=O)c3cc(CN(C)C)c(O)c(CN(C)C)c3)cc2)cc(CN(C)C)c1O | > 100 µM | > 100 µM | 59.8 µM | 46.8 µM | 78.8 µM | 54.7 µM | – | 94.3 µM | > 100 µM | 68.6 µM | 79.7 µM | > 100 µM | > 100 µM |
| O=C(c1cccs1)N(C(=O)N1CCC(c2ccccc2)CC1)c1ccccc1 | > 100 µM | > 100 µM | > 100 µM | > 100 µM | > 100 µM | > 100 µM | > 100 µM | > 100 µM | – | > 100 µM | > 100 µM | 76.9 µM | – |
| CC1=C(C#N)S(=O)(=O)c2c(oc(C)c2C)N1 | > 100 µM | > 100 µM | > 100 µM | > 100 µM | > 100 µM | > 100 µM | > 100 µM | > 100 µM | > 100 µM | > 100 µM | > 100 µM | > 100 µM | – |
| NNC(=O)c1ccccc1NC(=O)/C(=C/c1ccccc1)NC(=O)c1ccccc1 | > 100 µM | > 100 µM | > 100 µM | > 100 µM | > 100 µM | > 100 µM | > 100 µM | > 100 µM | > 100 µM | > 100 µM | > 100 µM | > 100 µM | – |
| CCCCNC(=S)Nc1nc(C(=O)NNS(=O)(=O)c2ccccc2)cs1 | > 100 µM | 99.9 µM | > 100 µM | > 100 µM | > 100 µM | – | > 100 µM | 59.2 µM | – | > 100 µM | 48.4 µM | 85.3 µM | > 100 µM |
| CCCCCCCCOCC1S(=O)(=O)OCCOS1(=O)=O | – | > 100 µM | > 100 µM | > 100 µM | > 100 µM | > 100 µM | > 100 µM | > 100 µM | > 100 µM | > 100 µM | > 100 µM | > 100 µM | > 100 µM |
| CO[P@]1(=O)O[C@@H](c2ccccc2)[C@H](O)[C@]1(O)c1ccccc1 | > 100 µM | > 100 µM | > 100 µM | > 100 µM | > 100 µM | > 100 µM | > 100 µM | > 100 µM | > 100 µM | – | > 100 µM | > 100 µM | – |
| Clc1ccc(OCc2nnc(CCCCCCCCc3nnc(COc4ccc(Cl)cc4Cl)o3)o2)c(Cl)c1 | > 100 µM | > 100 µM | > 100 µM | > 100 µM | – | > 100 µM | > 100 µM | > 100 µM | > 100 µM | > 100 µM | > 100 µM | > 100 µM | – |
| O=C1/C(=C/c2cccs2)N=C(c2ccccc2)N1C1Nc2cc3c(cc2S1)NC(N1C(=O)/C(=C/c2cccs2)N=C1c1ccccc1)S3 (stereo not given) | > 100 µM | > 100 µM | 75 µM | 37.1 µM | 31.3 µM | > 100 µM | – | – | 96.9 µM | 59.6 µM | 42.6 µM | > 100 µM | 31 µM |
| COC(=O)c1ccc(OCc2ccc3oc(=O)c(-c4ccccc4)nc3c2)cc1 | – | > 100 µM | > 100 µM | > 100 µM | > 100 µM | > 100 µM | – | – | > 100 µM | > 100 µM | – | > 100 µM | > 100 µM |
| CC1=C(N2CC2)C(=O)c2nc3n(c2C1=O)CCC3O (stereo not given) | – | 0.285 µM | 3.84 µM | 2.8 µM | 0.669 µM | 0.726 µM | 0.859 µM | 0.482 µM | 0.269 µM | 21.1 µM | 0.0484 µM | 4.18 µM | 35.6 µM |
| Brc1ccc2c(c1)C1=C(CO2)Cc2ccccc2O1 | – | 37.2 µM | 34.8 µM | 35 µM | 36.3 µM | 66.4 µM | 46.7 µM | 32.2 µM | 33.6 µM | 66.1 µM | 45.1 µM | 30.6 µM | > 100 µM |
| CC1(C)C2CCC1C(=O)C(C=O)C2 (stereo not given) | > 100 µM | > 100 µM | > 100 µM | > 100 µM | > 100 µM | > 100 µM | > 100 µM | > 100 µM | – | > 100 µM | > 100 µM | > 100 µM | 79.6 µM |
| CC(Nc1cc(Cl)cc(Cl)c1)c1ccncc1 (stereo not given) | 34.3 µM | > 100 µM | 32.4 µM | 33.4 µM | 40.8 µM | 70.5 µM | – | – | > 100 µM | 69.1 µM | 47.5 µM | 27.3 µM | – |
| CN(C)c1ccc(/C=N/NC2=N/C(=C\c3ccco3)C(=O)N2)cc1 | – | > 100 µM | > 100 µM | > 100 µM | > 100 µM | > 100 µM | > 100 µM | > 100 µM | – | > 100 µM | > 100 µM | > 100 µM | – |
| CC1=C2N3C[C@@H](n4c(=O)n(C)c(=O)n43)C23CCC1n1c(=O)n(C)c(=O)n13 | – | > 100 µM | > 100 µM | > 100 µM | > 100 µM | 54.8 µM | – | > 100 µM | > 100 µM | > 100 µM | – | > 100 µM | – |
| COc1cc(C(C#N)NNC(=O)c2ccccc2O)ccc1O (stereo not given) | – | > 100 µM | > 100 µM | > 100 µM | 8.73 µM | > 100 µM | > 100 µM | 5.22 µM | > 100 µM | > 100 µM | – | 3.28 µM | > 100 µM |
| CCCc1ccc(N=Cc2cc(OC)c(OC)c(OC)c2)cc1 | – | > 100 µM | > 100 µM | > 100 µM | > 100 µM | > 100 µM | > 100 µM | > 100 µM | > 100 µM | > 100 µM | – | > 100 µM | > 100 µM |
| CC(NC(=O)C(NC(=O)OC(C)(C)C)C(C)C)C(=O)NCC(=O)O (stereo not drawn) (Boc-Val-Ala-Gly-OH; configuration not given here) | – | > 100 µM | > 100 µM | > 100 µM | > 100 µM | > 100 µM | > 100 µM | > 100 µM | – | > 100 µM | > 100 µM | > 100 µM | > 100 µM |
| CCN(CC)CCNc1ccc(N=Nc2ccc(S(N)(=O)=O)cc2)c2ccccc12 | 47 µM | 40.3 µM | 88.1 µM | 23.3 µM | 12.8 µM | 14.6 µM | – | 25.7 µM | 30.9 µM | 25.6 µM | 23.6 µM | 20.8 µM | 4.94 µM |
| c1ccc2c(c1)SC1Sc3ccccc3[S+]21 (stereo not given) | > 69.2 µM | 55.4 µM | > 100 µM | 87.7 µM | 54.9 µM | > 76.7 µM | > 100 µM | 37.4 µM | > 100 µM | 47.8 µM | 60.9 µM | 50.9 µM | – |
| CC(=O)Nc1ccc(Nc2nc(=O)[nH]c(=O)[nH]2)cc1 | > 100 µM | > 100 µM | > 100 µM | > 100 µM | > 100 µM | > 100 µM | > 100 µM | > 100 µM | > 100 µM | – | > 100 µM | > 100 µM | > 100 µM |
| Cc1cc2ccccc2c[n+]1CC(=O)CC([O-])(C(F)(F)F)C(F)(F)F | – | – | > 100 µM | > 100 µM | > 100 µM | > 100 µM | > 100 µM | > 100 µM | > 100 µM | > 100 µM | > 100 µM | > 100 µM | > 100 µM |
| CN(C)Cc1cc(N=Nc2ccc(Cl)c(Cl)c2)ccc1O | 18.1 µM | 22.9 µM | – | 31.9 µM | 38.5 µM | 23.1 µM | – | 19.4 µM | 20.8 µM | 24.4 µM | 23.9 µM | 11.9 µM | 28.6 µM |
| COc1cccc(/C=C/C2=NN(c3cccc(S(=O)(=O)O)c3)C3(C2)SCC(=O)N3c2nc3ccccc3s2)c1 (stereo not given) | > 100 µM | 81.1 µM | > 100 µM | > 100 µM | 37.4 µM | > 100 µM | – | > 100 µM | > 100 µM | 81.3 µM | 66.6 µM | > 100 µM | 62.9 µM |
| CC(NC(=O)c1ccc(OP(=O)(OCC2=CC(=O)c3ccccc3C2=O)N(C)CCCCCl)cc1)c1ccc(OCC2CCCCC2)c(C(N)=O)c1 (stereo not given) | 24.9 µM | 61.7 µM | 70.6 µM | 13 µM | 28.5 µM | 38.3 µM | 48.8 µM | 21.4 µM | – | 30 µM | 5.68 µM | 21.9 µM | 34.3 µM |

From PubChem BioAssay (NCI)
